Test results reported in US6291676A, “Water-soluble derivatives of camptothecin/homocamptothecin” (priority 2000, dated 2001).

Experiments:
[1] = Fluorescence anisotropy titration: association with electroneutral DMPC vesicles; format: physicochemical
Procedure: Vesicle Preparation. Small unilamellar vesicle (SUV) suspensions were prepared the day of an experiment by the method of Burke et al. (T. G. Burke, A. K. Mishra, M. C. Wani, and M. E. Wall, Lipid Bilayer Partitioning and Stability of Camptothecin Drugs, Biochem., 32(20), 5352 (1993)). Briefly, stock lipid suspensions containing 200 mg/mL lipid in phosphate buffered saline (PBS, pH 7.4) were prepared by Vortex mixing for 5-10 min above the TM of the lipid. The lipid dispersions were then sonicated using a bath-type sonicator (Laboratory Supplies Co., Hicksville, N.Y.) for 3-4 h until they became optically clear. […] Each type of vesicle suspension was annealed for 30 min at 37° C. and then used in an experiment.
Fluorescence Instrumentation. Steady-state fluorescence measurements were obtained on a SLM Model 9850 spectrofluorometer with a thermostated cuvette compartment. This instrument was interfaced with an IBM PS/2 model 55 SX computer. Excitation and emission spectra were recorded with an excitation resolution of 8 nm and an emission resolution of 4 nm. In all cases spectra were corrected for background fluorescence and scatter from unlabeled lipids or from solvents by subtraction of the spectrum of a blank. Steady-state fluorescence intensity measurements were made in the absence of polarizers. Steady-state anisotropy (a) measurements were determined with the instrument in the "T-format" for simultaneous measurement of two polarized intensities. […] The anisotropy was calculated from a =(IVV -GIVH)/(IVV +2GIVH), where G=IHV /IHH and the subscripts refer to vertical and horizontal orientations of the excitation and emission polarizers, respectively.
Anisotropy measurements for camptothecins were conducted using exciting light in the range of 370 nm to 400 nm and long pass filters on each emission channel in order to isolate the drug's fluorescence signal from background scatter and/or residual fluorescence. […] The combination of exciting light and emission filters allowed us to adequately separate fluorescence from background signal. […]

[2] = Stability of the lactone form of CT-17 free and in liposomes in PBS, plasma, whole blood; format: physicochemical, human
Procedure: To determine the ability of CT-17 to be retained in liposomal preparations,the agent was loaded into liposomes using the active loading methodology as described previously (U.S. Pat. No. 5,192,549). Two types of liposomes were used: 1) non-stealth liposomes and 2) stealth liposomes. The liposome preparations were then incubated in various biological fluids to determine drug retention in the particle. In these experiments the lipid distearoylphosphatidylcholine (DSPC) was obtained from Avanti Polar Lipids (Birmingham, AL) and cholesterol was from Nutritional Biochemicals Corp., Cleveland, Ohio. […] Solvent was evaporated at 55-60° C. on rotary evaporator for 15 min to form the lipid film. The residual solvent was then removed under high vacuum at room temperature overnight. The lipid film was hydrated using 5 ml of 0.1 M ammonium sulfate. MLVs were formed by shaking and occasional vortexing at 55-60° C. LUVs were formed by passing the liposomal suspension through two 100 nm stacked polycarbonate filters under 20 psi pressure of nitrogen using 11 passes at 55-60° C. (Liposo-Fast-Pneumatic from AVESTIN, Toronto, Canada).
FIG. 7 is a graphical comparison of the stability of the lactone form of the camptothecin drug CT-17 as a function of time. […]

## CC[C@@]1(O)C(=O)OCc2c1cc1n(c2=O)Cc2c-1nc1ccccc1c2CNN1CCN(C)CC1 [CT-17, 7-[N-(4-methyl-1-piperazino)aminomethyl]-(20S)-camptothecin]
[1]; PBS buffer, pH 7.4, physiological temperature, DMPC
  Overall association constant KDMPC: 30 M⁻¹
[1]; electroneutral DMPC membranes
  reduction in membrane binding relative to 7AEC (DMPC): greater than 2 fold
[2]
  hydrolysis of free drug to inactive carboxylate: high rate and extensive amount of hydrolysis
